Data published in PMC6277434, “Discovery of a potent HMG-CoA reductase degrader that eliminates statin-induced reductase accumulation and lowers cholesterol” (Nature Communications, 2018).

How the values were obtained:
HMGCR [1] = molecular target: T1, HMGCR (Cricetulus griseus, UniProt P00347); experiment: HMGCR ubiquitination assay in CHO-7 cells; assay type: cell-based, Chinese hamster
T1 construct: endogenous in cells; host or cells: CHO-7, CHG, SRD-13A, SRD-15
T1 sequence (P00347 1-887): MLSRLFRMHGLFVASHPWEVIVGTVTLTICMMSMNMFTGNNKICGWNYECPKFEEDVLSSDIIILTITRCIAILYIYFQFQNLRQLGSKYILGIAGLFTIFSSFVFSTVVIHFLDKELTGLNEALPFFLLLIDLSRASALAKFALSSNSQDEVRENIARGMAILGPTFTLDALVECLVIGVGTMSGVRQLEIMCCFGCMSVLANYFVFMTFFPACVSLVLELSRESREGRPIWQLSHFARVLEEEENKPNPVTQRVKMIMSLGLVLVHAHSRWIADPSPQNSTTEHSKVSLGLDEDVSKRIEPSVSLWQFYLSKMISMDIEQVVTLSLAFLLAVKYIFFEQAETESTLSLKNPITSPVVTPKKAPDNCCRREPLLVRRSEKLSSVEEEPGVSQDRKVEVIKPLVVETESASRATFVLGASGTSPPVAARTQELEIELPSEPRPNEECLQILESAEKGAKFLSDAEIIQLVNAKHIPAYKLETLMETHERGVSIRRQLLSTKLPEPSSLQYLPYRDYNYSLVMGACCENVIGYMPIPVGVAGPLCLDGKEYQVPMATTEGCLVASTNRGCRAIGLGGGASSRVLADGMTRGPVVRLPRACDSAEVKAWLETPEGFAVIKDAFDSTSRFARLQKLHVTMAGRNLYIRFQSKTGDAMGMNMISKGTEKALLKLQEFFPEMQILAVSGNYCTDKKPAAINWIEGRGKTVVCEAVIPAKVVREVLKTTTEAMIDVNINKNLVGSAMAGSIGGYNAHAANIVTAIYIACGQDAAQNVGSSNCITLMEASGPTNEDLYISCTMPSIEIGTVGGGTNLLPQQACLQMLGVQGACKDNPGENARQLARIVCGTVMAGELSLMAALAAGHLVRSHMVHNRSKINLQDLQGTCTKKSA
Experimental: To detect endogenous HMGCR ubiquitination, CHO-7 cells were treated as described in figure legends. Two 10-cm dishes of cells were harvested and lysed in 600 μl of immunoprecipitation buffer (1× PBS, 1% Triton X-100, 5 mM EDTA, 5 mM EGTA) supplemented with protease inhibitor cocktail, 0.1 mM Leupeptin, 10 μM MG-132, and 10mM N-ethylmaleimide. Lysates were pre-cleared with 3 μg of normal rabbit IgG (D110502, Sangon) and 40 μl of protein A/G plus-agarose (sc-2003, Santa Cruz Biotechnology) for 1 h at 4 °C, followed by immunoprecipitation with 10 μg of rabbit polyclonal anti-HMGCR and 100 μl of protein A/G plus-agarose overnight at 4 °C. After washing with immunoprecipitation buffer containing protease inhibitor cocktail for three times, immunoprecipitates were eluted with 2× loading buffer (75 mM Tris-HCl, pH 6.8, 50 mM NaCl, 6% SDS, 15% glycerol, and 0.02% bromophenol blue) at 95 °C for 10 min. Supernatants were then mixed with equal volume of membrane protein solubilization buffer and incubated at 37 °C for 30 min. Samples were finally subjected to immunoblotting as described above.
To assay for the ubiquitination of overexpressed HMGCR protein, cells were first transfected with indicated plasmids. A similar protocol was employed except that lysates were immunoprecipitated with 40 μl of anti-Flag M2 affinity gel (A2220, Sigma-Aldrich).

HMGCR [2] = molecular target: T1, HMGCR; experiment: Immunoblotting of HMGCR protein in SRD-13A (Scap-deficient CHO-7) cells; assay type: cell-based, Chinese hamster; details: for HMGCR protein level, mean: SRD-13A, 16 h
Experimental: CHO-7 (Chinese hamster ovary cell, a clone of CHO-K1 cell line selected for growth in LPDS) and Huh7 (a human hepatocellular carcinoma cell line), SRD-13A (a Scap-deficient CHO-7 cell line) and SRD-15 (an Insig-1 and Insig-2-deficient CHO-7 cell line) were generous gifts from Russell Debose-Boyd at UT Southwestern Medical Center, USA. All cells were grown in a monolayer at 37 °C with 5% CO2. Huh7 cells were maintained in medium A supplemented with 10% FBS. CHO-7 and SRD-15 cells were maintained in medium B supplemented with 5% FBS. SRD-13A cells were maintained in medium B with 5% FBS, 5 μg ml^−1 cholesterol, 1 mM sodium mevalonate, 10 μM sodium oleate. No cell lines used in this study were found in the database of commonly misidentified cell lines that is maintained by ICLAC and NCBI Biosample. The cell lines have not been authenticated recently. No test for mycoplasma contamination was performed.
Cells were harvested and homogenized in the RIPA buffer (50 mM Tris-HCl, pH 8.0, 150 mM NaCl, 2 mM MgCl2, 1.5% NP-40, 0.1% SDS, and 0.5% sodium deoxycholate) supplemented with protease cocktail inhibitor, 10 μM MG-132, 10 μg ml^−1 leupeptin and 1 mM phenylmethylsulfonyl fluoride. The protein concentrations of lysates were determined using BCA method (Beyotime). Samples were mixed with the membrane protein solubilization buffer (62.5 mM Tris-HCl, pH 6.8, 15% SDS, 8 M urea, 10% glycerol, and 100 mM DTT) plus the 4× loading buffer (150 mM Tris-HCl, pH 6.8, 12% SDS, 30% glycerol, 6% 2-mercaptoethanol, and 0.02% bromophenol blue) and incubated for 30 min at 37 °C. Proteins were resolved by SDS-PAGE and transferred to nitrocellulose membranes (GE Healthcare). Immnoblots were blocked with 5% non-fat milk in TBS containing 0.075% Tween-20 (TBST) and probed with indicated antibodies overnight at 4 °C. After washing in TBST for five times, blots were incubated with HRP-conjugated secondary antibodies for 2 h at room temperature. Immunoreactivity was developed with Clarity Western ECL chemiluminescent substrates (170–5061, Bio-Rad). Western blot images were captured by Amersham Imager 600 (GE Healthcare), and integrated optical intensities of each band were quantified by Image-Pro Plus 6 software (Media Cybernetics). Uncropped blots are shown in Supplementary Figs. 9–13.

C=CCC(O)(CC=C)CCCC(C)C1CCC2C3C(O)C=C4C(C)(C)C(O)CCC4(C)C3CCC12C (stereo not drawn) [Cmpd 81]
ubiquitination of endogenous HMGCR (HMGCR [1]; CHO-7, with 10 μM MG-132, 3 h): dose-dependent increase
ubiquitination of transfected HMGCR (HMGCR [1]; cells co-expressing wild-type HMGCR and Insig-1): markedly increase

CC[C@H](C)C(=O)O[C@H]1C[C@@H](C)C=C2C=C[C@H](C)[C@H](CC[C@@H]3C[C@@H](O)CC(=O)O3)[C@H]21 [Lovastatin, lovastatin]
increase of HMGCR protein (HMGCR [2]; SRD-13A cells, lovastatin 16 h): ≤ 8 fold
HMGCR protein level, mean (HMGCR [2]; lovastatin 0.001 uM): 0.9418
HMGCR protein level, mean (HMGCR [2]; lovastatin 0.003 uM): 1.178
HMGCR protein level, mean (HMGCR [2]; lovastatin 0.01 uM): 2.758
HMGCR protein level, mean (HMGCR [2]; lovastatin 0.03 uM): 4.962
HMGCR protein level, mean (HMGCR [2]; lovastatin 0.1 uM): 7.087
HMGCR protein level, mean (HMGCR [2]; lovastatin 0.3 uM): 7.139
HMGCR protein level, mean (HMGCR [2]; lovastatin 1 uM): 8.174
HMGCR protein level, mean (HMGCR [2]; lovastatin 3 uM): 8.262
HMGCR protein level, mean (HMGCR [2]; lovastatin 10 uM): 7.249
